Results as given in patent publication US12741974B2, “Compounds constituting C20-modified salinomycin derivatives, a method for obtaining the same, a composition containing the same, a use of said compounds and a method for obtaining an intermediate product” (FILECLO SP. Z O.O., priority 2020, dated 2021).

Assays:
[1] = system: BALB/3T3 (normal murine fibroblasts); assay: In vitro cytotoxicity test on normal cells, SRB assay, 72 h incubation with compound; assay type: cell-based; details: read-out: IC50 BALB/3T3
Experimental: (§1) Normal murine BALB/3T3 fibroblasts were also used in the tests for determining the selectivity coefficients of the compounds used in the assays.
(§2) In vitro cytotoxicity tests were performed according to the procedure described below. […] The solvent for further dilutions was a culture medium.
(§3) The experiments were repeated at least 3 times.

Hs294T (human melanoma) = assay: In vitro cytotoxicity test, SRB assay, 72 h incubation with compound; assay type: cell-based; details: for IC50: Hs294T human melanoma, SRB, 72 h; for SI Hs294T: selectivity coefficient, BALB/3T3 versus Hs294T
Experimental: as §2, §3

[2] = system: MV-4-11 (human biphenotypic leukaemia); assay: In vitro cytotoxicity test, MTT assay, 72 h incubation with compound; assay type: cell-based; details: for IC50: MV-4-11 human biphenotypic leukaemia, MTT, 72 h; for SI MV-4-11: selectivity coefficient, BALB/3T3 versus MV-4-11
Experimental: as §2, §3
After 4 hours of incubation at 37° C., 80 μL of lysis buffer was added to each well.

B16-F0 (murine melanoma) = assay: In vitro cytotoxicity test, SRB assay, 72 h incubation with compound; assay type: cell-based; details: for IC50: B16-F0 murine melanoma, SRB, 72 h; for SI B16-F0: selectivity coefficient, BALB/3T3 versus B16-F0
Experimental: as §2, §3

[3] = system: LoVo (drug-sensitive human colon cancer); assay: as above; assay type: cell-based; details: for IC50: LoVo drug-sensitive human colon cancer, SRB, 72 h; for SI LoVo: selectivity coefficient, BALB/3T3 versus LoVo
Experimental: as §2, §3

[4] = system: MCF-7 (human breast cancer); assay: as above; assay type: cell-based; details: for IC50: MCF-7 human breast cancer, SRB, 72 h; for SI MCF-7: selectivity coefficient, BALB/3T3 versus MCF-7
Experimental: as §2, §3

[5] = system: LoVo/DX (drug-resistant human colon cancer); assay: as above; assay type: cell-based; details: for IC50: LoVo/DX drug-resistant human colon cancer, SRB, 72 h; for RI: drug resistance coefficient, LoVo/DX versus LoVo, 4320 min; for SI LoVo/DX: selectivity coefficient, BALB/3T3 versus LoVo/DX
Experimental: as §2, §3

cancer cells = assay: In vitro cytotoxicity tests, summary statements over the cancer cell lines; assay type: cell-based; details: in words; for anti-proliferative effect compared to the parent compound: versus salinomycin
Experimental: The following cancer cell lines were used in in vitro studies: • B16-F0 (murine melanoma), • Hs294T (human melanoma), • LoVo (drug-sensitive human colon cancer), • LoVo/DX (drug-resistant human colon cancer), • MCF-7 (human breast cancer), • MV-4-11 (human biphenotypic leukaemia).
as §1
In vitro cytotoxicity tests were performed according to the procedure described below. Stock solutions of the test compounds at 10 mg/mLh were prepared for each experiment ex tempore by dissolving 1 mg of the preparation in 100 μL of dimethylsulfoxide (DMSO). The solvent for further dilutions was a culture medium. Compounds were tested at concentration ranges of 100 to 0.00001 μg/mLh (for the B16-F0 and Hs294T cell lines) and 100 to 0.1 μg/mLh (for the LoVo, LoVo/DX, MCF-7, MV-4-11 and BALB/3T3 cell lines).
An MTT tetrazolium salt reduction assay [as per: Wietrzyk et al., Anti-cancer drugs, 2007, 18, 447-457] was performed for MV-4-11 cells (human biphenotypic leukaemia) to evaluate the metabolic activity of cancer cells. On the other hand, to determine the anti-proliferative activity of all tested compounds against B16-F0 (murine melanoma), Hs294T (human melanoma), LoVo (drug-sensitive human colon cancer), LoVo/DX (drug-resistant human colon cancer), MCF-7 (human breast cancer) and BALB/3T3 (normal mouse fibroblasts) cell lines, the SRB colorimetric assay was used [as per: Skehan et al., Journal of the National Cancer Institute, 1990, 82, 1107-1112] measuring the inhibition of target cell proliferation based on the amount of cellular protein measured. In each experiment, samples containing specific concentrations of the test compound were applied to 96-well plates in triplicate. The experiments were repeated at least 3 times.
When calculating the mean absorbance value for a set of wells (untreated cells, cells treated with a specific compound at a specific concentration, control of medium alone), outliers were rejected using a 10% coefficient of variation CV.

[6] = In vitro cytotoxicity test on normal cells, SRB assay, 72 h incubation with compound; assay type: cell-based; details: mouse, balb/3t3 cells, normal murine fibroblasts, read-out: IC50 BALB/3T3
Experimental: as §1, §2, §3

[7] = system: advanced head, neck, breast and ovarian cancer; details: small group of patients with advanced head; cited from earlier work

Row | Structure (SMILES) | CC50 [1] | IC50 (Hs294T (human melanoma)) | SI Hs294T (Hs294T (human melanoma)) | IC50 [2] | SI MV-4-11 [2] | SI B16-F0 (B16-F0 (murine melanoma)) | IC50 [3] | SI LoVo [3] | SI MCF-7 [4] | IC50 [5] | RI [5] | SI LoVo/DX [5] | anti-proliferative effect compared to the parent compound (cancer cells) | CC50 at 72 h [6] | IC50 (Hs294T (human melanoma); Hs 294T) | IC50 (B16-F0 (murine melanoma); Mus musculus, B16F0) | IC50 ([4]; MCF7) | IC50 ([2]; MV4-11) | also measured
1 | CC[C@@H](C(=O)[C@@H](C)[C@@H](O)[C@H](C)[C@@H]1O[C@@H]([C@@H](CC)C(=O)O)CC[C@@H]1C)[C@H]1O[C@]2(C=C[C@H](NC(=O)C(C)C)[C@]3(CC[C@@](C)([C@H]4CC[C@](O)(CC)[C@H](C)O4)O3)O2)[C@H](C)C[C@@H]1C [(10 epi), reference compound] | 3.8 µM | 4 µM | 0.95 | 0.4 µM | 9.5 | – | – | – | – | – | – | – | – | – | – | – | – | – | –
2 | CC[C@@H](C(=O)[C@@H](C)[C@@H](O)[C@H](C)[C@@H]1O[C@@H]([C@@H](CC)C(=O)O)CC[C@@H]1C)[C@H]1O[C@]2(C=C[C@H](NC(=O)CCCCl)[C@]3(CC[C@@](C)([C@H]4CC[C@](O)(CC)[C@H](C)O4)O3)O2)[C@H](C)C[C@@H]1C [(12 epi), reference compound] | 7.3 µM | – | – | 2.5 µM | 2.9 | – | – | – | – | – | – | – | – | – | – | – | – | – | –
3 | CC[C@@H](C(=O)[C@@H](C)[C@@H](O)[C@H](C)[C@@H]1O[C@@H]([C@@H](CC)C(=O)O)CC[C@@H]1C)[C@H]1O[C@]2(C=C[C@H](NC(=O)c3ccccc3)[C@]3(CC[C@@](C)([C@H]4CC[C@](O)(CC)[C@H](C)O4)O3)O2)[C@H](C)C[C@@H]1C [(15 epi), reference compound] | 1 µM | 0.08 µM | 12.5 | 0.033 µM | 30 | 2.5 | 0.2 µM | 5 | 0.9 | 0.63 µM | 3 | 1.6 | – | – | – | – | – | – | IC50 (B16-F0 (murine melanoma)): 0.4 µM; IC50 [4]: 1.1 µM
4 | CC[C@@H](C(=O)[C@@H](C)[C@@H](O)[C@H](C)[C@@H]1O[C@@H]([C@@H](CC)C(=O)O)CC[C@@H]1C)[C@H]1O[C@]2(C=C[C@@H](NC(=O)c3ccccc3)[C@]3(CC[C@@](C)([C@H]4CC[C@](O)(CC)[C@H](C)O4)O3)O2)[C@H](C)C[C@@H]1C [(15), C20-dehydroxy-C20-aminosalinomycin N-benzamide] | – | – | 81.5 | – | 27.2 | 81.5 | 0.28 µM | 5.1 | 5.8 | 0.05 µM | 0.2 | 32.6 | several times more potent | 1.63 µM | 0.02 µM | 0.02 µM | 0.28 µM | 0.06 µM | –
5 | CCOC(=O)N[C@H]1C=C[C@]2(O[C@H]([C@@H](CC)C(=O)[C@@H](C)[C@@H](O)[C@H](C)[C@@H]3O[C@@H]([C@@H](CC)C(=O)O)CC[C@@H]3C)[C@@H](C)C[C@H]2C)O[C@@]12CC[C@@](C)([C@H]1CC[C@](O)(CC)[C@H](C)O1)O2 [(19 epi), reference compound] | 1 µM | 0.06 µM | 16 | 0.046 µM | 22 | 3 | 0.24 µM | 4.1 | 1 | 0.7 µM | 3 | 1.4 | – | – | – | – | – | – | IC50 (B16-F0 (murine melanoma)): 0.33 µM; IC50 [4]: 1 µM
6 | C#CCOC(=O)N[C@@H]1C=C[C@]2(O[C@H]([C@@H](CC)C(=O)[C@@H](C)[C@@H](O)[C@H](C)[C@@H]3O[C@@H]([C@@H](CC)C(=O)O)CC[C@@H]3C)[C@@H](C)C[C@H]2C)O[C@@]12CC[C@@](C)([C@H]1CC[C@](O)(CC)[C@H](C)O1)O2 [(22), C20-dehydroxy-C20-aminosalinomycin N-propargylcarbamate] | – | – | 322.0 | – | 26.4 | 66.0 | 0.3 µM | 4.4 | 3.9 | 0.05 µM | 0.2 | 26.4 | tens of times more potent | 1.32 µM | 0.0041 µM | 0.02 µM | 0.34 µM | 0.05 µM | –
7 | CC[C@@H](C(=O)[C@@H](C)[C@@H](O)[C@H](C)[C@@H]1O[C@@H]([C@@H](CC)C(=O)[O-])CC[C@@H]1C)[C@H]1O[C@]2(C=C[C@@H](NC(=O)NCCCCl)[C@]3(CC[C@@](C)([C@H]4CC[C@](O)(CC)[C@H](C)O4)O3)O2)[C@H](C)C[C@@H]1C.[Na+] [(25), 3-chloropropylurea of C20-dehydroxy-C20-aminosalinomycin] | – | – | 241.1 | – | 4500.0 | 135.0 | 0.02 µM | 67.5 | 7.5 | 0.22 µM | 11.0 | 6.1 | tens of times more potent | 1.35 µM | 0.0056 µM | 0.01 µM | 0.18 µM | 0.0003 µM | preferred effect against a type of cancer cells (cancer cells): preferred effect against biphenotypic leukaemia cells
8 | CC[C@@H](C(=O)[C@@H](C)[C@@H](O)[C@H](C)[C@@H]1O[C@@H]([C@@H](CC)C(=O)O)CC[C@@H]1C)[C@H]1O[C@]2(C=C[C@@H](O)[C@]3(CC[C@@](C)([C@H]4CC[C@](O)(CC)[C@H](C)O4)O3)O2)[C@H](C)C[C@@H]1C [salinomycin] | – | – | 3.7 | – | 29.7 | 3.3 | 0.21 µM | 9.9 | 1.0 | 0.48 µM | 2.3 | 4.3 | – | 2.08 µM | 0.56 µM | 0.63 µM | 2.1 µM | 0.07 µM | effect on cancer progression in patients [7]: inhibition of cancer progression; side effects in patients [7]: no acute side effects
